Experimental data: patent US20230159467A1, “NOVEL COMPOUNDS USEFUL IN THE TREATMENT AND/OR PREVENTION OF A DISEASE, DISORDER OR CONDITION ASSOCIATED WITH ANGIOTENSIN II” (Vicore Pharma AB, priority 2020, published 2023)
Read-outs that look alike come from different tables or passages of the source.

Assays:
[1] = Stability in human liver microsomes; assay type: in vitro ADME; conditions: half-life
Experimental: (§1) Stability in liver microsomes. Human, mouse and rat liver microsomes were used to assess the metabolic stability for the compounds. Metabolic stability was determined in 0.5 mg/mL human, mouse or rat liver microsomes at a compound concentration of 1 μM in 100 mM potassium phosphate buffer (pH 7.4) in a total incubation volume of 500 μL by Eurofins. The assay matrix was: human liver microsomes: mixed gender and pool of 50, rat liver microsomes: male, Sprague-Dawley, pool of 100 or more and mouse liver microsomes: male,CD-1, pool of 250 or more. Final microsomal protein concentration: 0.1mg/mL. The test concentration was 0.1 μM with 0.01% DMSO, 0.25% acetonitrile and 0.25% methanol by default. […] The reaction was initiated by adding NADPH-generating system and was incubated for 0, 15, 30, 45, and 60 min. The reaction was stopped by transferring the incubation mixture to acetonitrile/methanol. Samples were then mixed and centrifuged. Four reference compounds were tested in each assay. Propranolol and imipramine are relatively stable, whereas verapamil and terfenadine are readily metabolized inhuman liver microsomes. Samples were analyzed by HPLC-MS/MS using selected reaction monitoring. The HPLC system consisted of a binary LC pump with autosampler, a C-18 column, and a gradient. Peak areas corresponding to the test compound were recorded. The compound remaining was calculated by comparing the peak area at each time point to time zero. The half-life was calculated from the slope of the initial linear range of the logarithmic curve of compound remaining (%) vs. time, assuming first order kinetics. In addition, the intrinsic clearance (Clint) was calculated.^19,20

[2] = Stability in mouse liver microsomes; assay type: in vitro ADME; conditions: half-life
Experimental: as §1

[3] = system: CYP3A; assay: CYP450 inhibition assay, pooled human liver microsomes, testosterone substrate; conditions: at 10 μM; for inhibition at 10 min, 10 µM: both, human, pooled human liver microsomes, pH 7.4, probe testosterone, CYP 450 Inhibition CYP3A testosterone
Experimental: The compound was tested at a single concentration (10 μM) with 0.1% DMSO. […] The reaction was initiated by adding a NADPH-generating system. The reaction was allowed for 10 min and stopped by transferring the reaction mixture to acetonitrile/methanol. Samples were mixed and centrifuged. Supernatants were used for HPLC-MS/MS of the respective metabolite. The activity of human cytochrome P450 (CYP) enzymes were determined by following the formation of a metabolite of the probe substrate. The following enzymes were evaluated for inhibition using the listed reference substrates and reference inhibitors:
CYP1A—phenacetin (reference inhibitor furafylline), CYP2B6—bupropion (reference inhibitor clopidogre), CYP2C8-amodiaquine (reference inhibitor montelukast), CYP2C9—diclofenac (reference inhibitor sulfaphenazole), CYP2C19—omeprazole (reference inhibitor oxybutynin), CYP2D6—dextromethorphan (reference inhibitor quinidine), CYP3A—midazolam (reference inhibitor ketoconazol) and CYP3A—testosterone (reference inhibitor ketoconazol). The reference inhibitors were tested in each assay at multiple concentrations to obtain an IC50 value. Peak areas corresponding to the metabolite were recorded. The percent of control activity was calculated by comparing the peak area in the presence of the test compound to the control samples containing the same solvent. Subsequently, the percent inhibition was calculated by subtracting the percent control activity from 100. The IC50 value (concentration causing a half-maximal inhibition of the control value) was determined by non-linear regression analysis of the concentration-response curve using the Hill equation.

[4] = target: T1, CYP2C8 (Homo sapiens, UniProt P10632); assay: CYP450 inhibition assay, pooled human liver microsomes, amodiaquine substrate; conditions: for inhibition at 10 min, 10 µM: both, human, pooled human liver microsomes, pH 7.4, probe amodiaquine
T1 sequence (P10632 1-490): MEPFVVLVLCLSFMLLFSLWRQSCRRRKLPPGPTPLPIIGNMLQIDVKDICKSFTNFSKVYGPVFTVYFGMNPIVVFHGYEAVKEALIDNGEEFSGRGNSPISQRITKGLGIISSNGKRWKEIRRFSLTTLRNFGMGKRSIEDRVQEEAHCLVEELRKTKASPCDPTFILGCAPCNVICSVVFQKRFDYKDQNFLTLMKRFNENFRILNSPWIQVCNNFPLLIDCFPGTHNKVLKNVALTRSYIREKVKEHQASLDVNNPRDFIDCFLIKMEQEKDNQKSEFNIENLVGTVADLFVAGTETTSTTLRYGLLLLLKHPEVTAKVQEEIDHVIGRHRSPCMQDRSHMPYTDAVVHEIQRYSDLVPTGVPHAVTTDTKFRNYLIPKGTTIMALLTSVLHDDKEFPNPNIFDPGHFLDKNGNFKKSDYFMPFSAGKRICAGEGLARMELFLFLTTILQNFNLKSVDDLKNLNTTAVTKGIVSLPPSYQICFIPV

[5] = target: T2, CYP2D6 (Homo sapiens, UniProt P10635); assay: CYP450 inhibition assay, pooled human liver microsomes, dextromethorphan substrate; conditions: for inhibition at 10 min, 10 µM: both, human, pooled human liver microsomes, pH 7.4, probe dextromethorphan
T2 sequence (P10635 whole entry): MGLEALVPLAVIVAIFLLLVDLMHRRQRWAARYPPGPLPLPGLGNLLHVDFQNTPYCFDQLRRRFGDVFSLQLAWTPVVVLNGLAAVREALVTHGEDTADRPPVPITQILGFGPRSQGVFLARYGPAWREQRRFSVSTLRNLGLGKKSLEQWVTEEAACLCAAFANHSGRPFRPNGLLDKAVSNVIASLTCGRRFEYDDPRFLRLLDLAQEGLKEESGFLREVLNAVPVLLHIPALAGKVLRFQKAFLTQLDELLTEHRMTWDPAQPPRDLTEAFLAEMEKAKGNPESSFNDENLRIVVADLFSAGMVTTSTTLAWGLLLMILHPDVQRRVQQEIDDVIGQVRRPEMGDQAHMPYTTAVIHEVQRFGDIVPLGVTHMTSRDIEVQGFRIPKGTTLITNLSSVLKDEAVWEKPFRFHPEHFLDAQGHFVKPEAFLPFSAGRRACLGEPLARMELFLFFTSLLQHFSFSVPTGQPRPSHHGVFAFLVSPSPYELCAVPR

[6] = target: CYP2C9 (Homo sapiens, UniProt P11712); assay: CYP450 inhibition assay, pooled human liver microsomes, diclofenac substrate; conditions: both, human, pooled human liver microsomes, pH 7.4, probe diclofenac
Sequence of CYP2C9 (P11712 whole entry): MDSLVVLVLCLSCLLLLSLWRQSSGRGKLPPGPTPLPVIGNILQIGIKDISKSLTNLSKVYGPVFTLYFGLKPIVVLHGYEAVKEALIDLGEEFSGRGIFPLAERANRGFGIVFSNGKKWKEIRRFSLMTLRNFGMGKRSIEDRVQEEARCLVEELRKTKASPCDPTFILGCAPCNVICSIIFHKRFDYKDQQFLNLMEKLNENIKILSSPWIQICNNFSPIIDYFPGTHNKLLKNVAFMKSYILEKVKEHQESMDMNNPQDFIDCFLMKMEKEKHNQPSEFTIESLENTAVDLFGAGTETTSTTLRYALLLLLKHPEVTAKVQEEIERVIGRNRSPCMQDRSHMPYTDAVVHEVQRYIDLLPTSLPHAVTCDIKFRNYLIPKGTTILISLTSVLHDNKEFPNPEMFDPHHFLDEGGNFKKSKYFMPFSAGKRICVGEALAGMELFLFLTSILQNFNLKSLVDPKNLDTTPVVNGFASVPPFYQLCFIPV

[7] = system: CYP3A; assay: CYP450 inhibition assay, pooled human liver microsomes, midazolam substrate; conditions: for inhibition at 10 min, 10 µM: both, human, pooled human liver microsomes, pH 7.4, probe midazolam
[8] = target: T3, CYP2B6 (Homo sapiens, UniProt P20813); assay: CYP450 inhibition assay, pooled human liver microsomes, bupropion substrate; conditions: for inhibition at 10 min, 10 µM: both, human, pooled human liver microsomes, pH 7.4, probe bupropion
T3 sequence (P20813 1-491): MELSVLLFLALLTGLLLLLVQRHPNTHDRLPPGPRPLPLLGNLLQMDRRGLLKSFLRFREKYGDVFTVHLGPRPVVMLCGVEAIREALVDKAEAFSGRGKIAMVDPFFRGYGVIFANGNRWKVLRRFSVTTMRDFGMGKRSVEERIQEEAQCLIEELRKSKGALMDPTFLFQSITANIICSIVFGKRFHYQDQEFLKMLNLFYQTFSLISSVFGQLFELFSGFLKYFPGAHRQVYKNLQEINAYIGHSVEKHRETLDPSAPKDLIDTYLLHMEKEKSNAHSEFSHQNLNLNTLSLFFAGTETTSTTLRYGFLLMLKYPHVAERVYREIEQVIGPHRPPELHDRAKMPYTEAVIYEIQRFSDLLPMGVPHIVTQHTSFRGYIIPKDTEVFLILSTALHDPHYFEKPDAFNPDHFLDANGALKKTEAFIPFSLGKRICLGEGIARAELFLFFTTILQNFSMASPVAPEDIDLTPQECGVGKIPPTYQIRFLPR

[9] = target: T4, CYP1A (Homo sapiens, UniProt P05177); assay: CYP450 inhibition assay, pooled human liver microsomes, phenacetin substrate; conditions: for inhibition at 10 min, 10 µM: both, human, pooled human liver microsomes, pH 7.4, probe phenacetin
T4 sequence (P05177 1-516): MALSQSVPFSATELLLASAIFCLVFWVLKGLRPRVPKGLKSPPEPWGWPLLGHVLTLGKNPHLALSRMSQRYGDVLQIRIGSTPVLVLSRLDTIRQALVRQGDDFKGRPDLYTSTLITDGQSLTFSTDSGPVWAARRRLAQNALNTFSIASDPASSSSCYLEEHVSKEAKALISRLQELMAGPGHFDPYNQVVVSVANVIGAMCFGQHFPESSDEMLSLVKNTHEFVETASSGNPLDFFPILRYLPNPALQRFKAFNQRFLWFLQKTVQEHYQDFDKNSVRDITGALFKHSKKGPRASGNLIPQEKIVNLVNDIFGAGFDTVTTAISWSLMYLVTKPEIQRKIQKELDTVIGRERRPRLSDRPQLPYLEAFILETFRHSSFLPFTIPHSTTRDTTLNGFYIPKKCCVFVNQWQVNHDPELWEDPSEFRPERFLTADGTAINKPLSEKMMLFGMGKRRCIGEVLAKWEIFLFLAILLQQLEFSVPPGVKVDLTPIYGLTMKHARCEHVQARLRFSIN

[10] = Kinetic solubility in PBS pH 7.4; assay type: physicochemical; conditions: Dulbecco's PBS buffer, aqueous buffer, kinetic from dmso stock; PBS pH 7.4, 24 h room temperature, 2% DMSO
Experimental: Kinetic solubility. Dulbecco's PBS buffer was used (NaCl 137 mM, KCl 2.7 mM, Na2HPO4 8.1 mM, KH2PO4 1.5 mM with pH 7.4). The test compound is prepared at 200 μM in the PBS buffer from a 10 mM DMSO stock solution. The final DMSO concentration is 2%. The buffer samples were mixed thoroughly followed by incubation at room temperature for 24 h. At the end of the incubation, the buffer samples were centrifuged and supernatants were then injected for the HPLC analysis. A calibration standard of the test compound was prepared at 200 μM in methanol/water (3/2, v/v) from a 10 mM DMSO stock solution on the day of HPLC analysis. The analysis was conducted by HPLC-UV/VIS with photodiode array detection, with monitoring at 205, 230, 260, and 300 nm wavelengths. The HPLC system consisted of a C18 column using a gradient of A and B (A=12 mM ammonium formate, 6 mM formic acid in water, pH 4.0, B=6 mM ammonium formate, 3 mM formic acid acetonitrile/water (9/1, v/v)). Reference compounds used were metoprolol, rifampicin, ketoconazole, phenytoin, haloperidol, simvastatin, diethylstilbestrol, and tamoxifen, ranking from fully soluble (200 μM) to poorly soluble (<1μM). […] The range of the assay was approximately 0.5 μM to 200 μM. The chromatographic purity (%) was determined as the peak area of the principal peak relative to the total integrated peak areas in the HPLC chromatogram of the calibration standard.

[11] = target: T5, CYP2C19 (Homo sapiens, UniProt P33261); assay: CYP450 inhibition assay, pooled human liver microsomes, omeprazole substrate; conditions: both, human, pooled human liver microsomes, pH 7.4, probe omeprazole
T5 sequence (P33261 whole entry): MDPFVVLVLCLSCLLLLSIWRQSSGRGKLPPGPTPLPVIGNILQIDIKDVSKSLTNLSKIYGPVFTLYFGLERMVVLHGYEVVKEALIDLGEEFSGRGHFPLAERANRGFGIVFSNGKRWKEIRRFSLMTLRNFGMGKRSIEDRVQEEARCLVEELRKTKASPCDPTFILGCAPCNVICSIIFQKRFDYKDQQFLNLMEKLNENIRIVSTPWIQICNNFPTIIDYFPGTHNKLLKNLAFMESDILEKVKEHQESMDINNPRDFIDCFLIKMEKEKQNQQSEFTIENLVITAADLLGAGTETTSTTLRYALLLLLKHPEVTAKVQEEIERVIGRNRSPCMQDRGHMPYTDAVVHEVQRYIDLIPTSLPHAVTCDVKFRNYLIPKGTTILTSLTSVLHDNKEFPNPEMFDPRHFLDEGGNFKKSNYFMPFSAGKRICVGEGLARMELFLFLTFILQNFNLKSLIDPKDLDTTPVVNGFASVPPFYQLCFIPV

[12] = Stability in rat liver microsomes; assay type: in vitro ADME; conditions: half-life
Experimental: as §1

[13] = target: T2, CYP2D6; conditions: at 10 μM; from Bioorg. Med. Chem. 2010, 18 (12), 4570-4590; cited from earlier work
[14] = system: CYP3A; conditions: at 10 μM; midazolam substrate; from Bioorg. Med. Chem. 2010, 18 (12), 4570-4590; cited from earlier work
[15] = target: T5, CYP2C19; conditions: at 10 μM; from Bioorg. Med. Chem. 2010, 18 (12), 4570-4590; cited from earlier work

Compound	Stability in liver microsomes HLM [1]	Stability in liver microsomes MLM [2]	inhibition at 10 min, 10 µM [3]	inhibition at 10 min, 10 µM [4]	inhibition at 10 min, 10 µM [5]	inhibition at 10 min, 10 µM [6]	inhibition at 10 min, 10 µM [7]	inhibition at 10 min, 10 µM [8]	inhibition at 10 min, 10 µM [9]	solubility kinetic at 24 h [10]	inhibition at 10 min, 10 µM [11]	Stability in liver microsomes RLM [12]	also measured
CCCCOC(=O)[N-]S(=O)(=O)c1ccc(CC(C)C)cc1-c1ccc(Cn2ccnc2C(C)(C)C)cc1.[K+] [Example 2B, Potassium ((4′-((2-(tert-butyl)-1H-imidazol-1-yl)methyl)-5-isobutyl-[1,1′-biphenyl]-2-yl)sulfonyl)(butoxycarbonyl)amide]	11 min	10 min	27%	81%	15%	91%	16%	57%	4.5%	183 µM	71%	8 min	
CCCCOC(=O)[N-]S(=O)(=O)c1ccc(CC(C)C)cc1-c1ccc(Cn2ccnc2C(C)(C)O)cc1.[K+] [Example 7B, Potassium (butoxycarbonyl)((4′-((2-(2-hydroxypropan-2-yl)-1H-imidazol-1-yl)methyl)-5-isobutyl-[1,1′-biphenyl]-2-yl)sulfonyl)amide]	28 min	20 min	3.1%	68%	16%	74%	-10.7%	40%	-50%	> 200 µM	52%	22 min	
COC(=O)[N-]S(=O)(=O)c1sc(CC(C)C)cc1-c1ccc(Cn2ccnc2C(C)(C)C)cc1.[K+] [Example 12B, Potassium ((3-(4-((2-(tert-butyl)-1H-imidazol-1-yl)methyl)phenyl)-5-isobutylthiophen-2-yl)sulfonyl)(methoxycarbonyl)amide]	>60 min	39 min	6.8%	73%	1.6%	29%	-11.6%	25%	8.3%	> 200 µM	36%	>60 min	
CCCCOC(=O)[N-]S(=O)(=O)c1sc(CC(C)C)cc1-c1ccc(Cn2ccnc2)cc1.[Na+] [Example 13, Sodium ((3-(4-((1H-imidazol-1-yl)methyl)phenyl)-5-isobutylthiophen-2-yl)sulfonyl)(butoxycarbonyl)amide, reference compound]	36 min	39 min	84%	69%				53%	77%	198 µM	93%	20 min	CYP 450 Inhibition CYP3A testosterone [3]: 90%; CYP 450 Inhibition CYP2C8 ([4]; at 10 μM): 82%; CYP 450 Inhibition CYP2D6 ([5]; at 10 μM): 90%; CYP 450 Inhibition CYP3A midazolam ([7]; at 10 μM, midazolam substrate): 93%; CYP 450 Inhibition CYP2B6 ([8]; at 10 μM): 63%; CYP 450 Inhibition CYP1A ([9]; at 10 μM): 89%
CCCCOC(=O)NS(=O)(=O)c1sc(CC(C)C)cc1-c1ccc(Cn2ccnc2)cc1 [Example C21, butyl ((3-(4-((1H-imidazol-1-yl)methyl)phenyl)-5-isobutylthiophen-2-yl)sulfonyl)carbamate]													CYP 450 Inhibition CYP2D6 [13]: 41%; CYP 450 Inhibition CYP3A midazolam [14]: 82%; CYP 450 Inhibition CYP2C19 [15]: 67%
